Our source for the Dmax and DC50 values is patent publication US20220370416A1, “COMPOUNDS AND METHODS FOR TARGETED DEGRADATION OF KRAS” (Arvinas Operations, Inc., priority 2020, published 2022).

Molecules are shown by their SMILES.

Assay [1] deals with T1, HiBit-KRAS^G12C (Homo sapiens, UniProt P01116, G12C). Put plainly: HiBit degradation assay in MiaPaCa-2 HiBit-KRas^G12C cells. It counts as cell-based. The note with it: 24 hours; for Dmax: MIA PaCa-2, MiaPaCa-2 HiBit-KRas^G12C cells, maximum degradation; for DC50: MiaPaCa-2 HiBit-KRas^G12C cells. In outline:
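DC50 and Dmax come from 4-parameter fits of DMSO-normalized HiBit luminescence after 24 hours' exposure at 37° C to 10 μM–20 nM compound in 0.1% or 0.5% DMSO. Cells: MiaPaCa-2 carrying one endogenously HiBit-tagged KRAS^G12C allele; concentrations causing ≥50% […] viability loss (alamar blue) excluded.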
(In general: HiBiT is a short tag that completes a luciferase, so light tracks the accessible tagged protein.)

Assay [2] addresses T1, HiBit-KRAS^G12C. As to the kind of experiment: HiBit degradation assay in SW1573 HiBit-KRas^G12C cells. The assay is classed as cell-based. Also on record: expressed in transfected cells; host or cells: SW1573 (clone E6), modified pcDNA3.1 vector, TK promoter. The note with it: 24 hours; for Dmax: SW1573, SW1573 HiBit-KRas^G12C; for DC50: SW1573 HiBit-KRas^G12C. The method, boiled down:
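HiBit-KRAS G12C degradation was measured after a 24 h compound exposure (titrated 10 μM–20 nM) in engineered SW1573 cells. Lytic HiBit luminescence, expressed relative to DMSO controls, yielded DC50 and Dmax from 4-parameter fits. Concentrations causing ≥50% loss in alamar blue viability were omitted as cytotoxic.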

Where [3] appears, read: 0.5% DMSO, read-out: KRas^G12C-HiBiT (MiaPaCa; 0.5% DMSO) DMax.
The mark [4] stands for this setting: read-out: KRas^G12C-HiBiT (MiaPaCa; 0.5% DMSO) IC50, 0.5% DMSO.
[5] abbreviates: 0.5% DMSO, read-out: KRas^G12C-HiBiT (SW1573; 0.5% DMSO) Dmax**.
The mark [6] stands for this setting: read-out: KRas^G12C-HiBiT (SW1573; 0.5% DMSO) IC50***, 0.5% DMSO.
[7] abbreviates: 0.1% DMSO, read-out: KRas^G12C-HIBit (SW1573; 0.1% DMSO) DC50*.

T1 sequence (P01116 1-186 isoform P01116-2 G12C limits assumed): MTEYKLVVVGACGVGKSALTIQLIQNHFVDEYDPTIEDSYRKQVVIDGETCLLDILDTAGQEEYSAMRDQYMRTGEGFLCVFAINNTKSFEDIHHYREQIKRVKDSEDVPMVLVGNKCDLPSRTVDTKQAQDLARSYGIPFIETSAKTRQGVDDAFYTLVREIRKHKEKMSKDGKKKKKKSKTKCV

Take `C=CC(=O)N1CCN(c2nc(OCCN3CCC(COCC(=O)N[C@H](C(=O)N4C[C@H](O)C[C@H]4C(=O)N[C@@H](C)c4ccc(-c5scnc5C)cc4)C(C)(C)C)CC3)nc3c(F)c(-c4nc(NC)cc5ccccc45)c(Cl)cc23)C[C@@H]1CC#N` [Compound 99, (2S,4R)-1-[(2S)-2-[2-({1-[2-({6-chloro-4-[(3S)-3-(cyanomethyl)-4-(prop-2-enoyl)piperazin-1-yl]-8-fluoro-7-[3-(methylamino)isoquinolin-1-yl]quinazolin-2-yl}oxy)ethyl]piperidin-4-yl}methoxy)acetamido]-3,3-dimethylbutanoyl]-4-hydroxy-N-[(1S)-1-[4-(4-methyl-1,3-thiazol-5-yl)phenyl]ethyl]pyrrolidine-2-carboxamide]: the Dmax on HiBit-KRAS^G12C [1] (setting [3]) and on HiBit-KRAS^G12C [2] (setting [5]) was more than 70% throughout. In addition, the DC50 at HiBit-KRAS^G12C [1] (setting [4]) and on HiBit-KRAS^G12C [2] (setting [6]) was more than 1 µM throughout.
Turning to `C=C(F)C(=O)N1CCN(c2nc(OCCN3CCC(F)(COc4cc([C@H](C(=O)N5C[C@H](O)C[C@H]5C(=O)N[C@@H](C)c5ccc(-c6ccnn6C)cc5)C(C)C)on4)CC3)nc3c(F)c(-c4cc(O)cc5ccccc45)c(Cl)cc23)C[C@@H]1CC#N` (atropisomer, axis not shown) [Compound 117, (2S,4R)-1-[(2R)-2-[3-({1-[2-({6-chloro-4-[(3S)-3-(cyanomethyl)-4-(2-fluoroprop-2-enoyl)piperazin-1-yl]-8-fluoro-7-(3-hydroxynaphthalen-1-yl)quinazolin-2-yl}oxy)ethyl]-4-fluoropiperidin-4-yl}methoxy)-1,2-oxazol-5-yl]-3-methylbutanoyl]-4-hydroxy-N-[(1S)-1-[4-(1-methyl-1H-pyrazol-5-yl)phenyl]ethyl]pyrrolidine-2-carboxamide], the Dmax at HiBit-KRAS^G12C [1] (setting [3]) was more than 70%; on HiBit-KRAS^G12C [2] (setting [5]), 35 to 70%. The DC50 at HiBit-KRAS^G12C [1] (setting [4]) and at HiBit-KRAS^G12C [2] (setting [6]) was less than 0.1 µM each time.
For `C=CC(=O)N1CCN(c2nc(O[C@H](C)CN3CCC(COCC(=O)N[C@H](C(=O)N4C[C@H](O)C[C@H]4C(=O)N[C@@H](C)c4ccc(-c5scnc5C)cc4)C(C)(C)C)CC3)nc3c(F)c(-c4cc(O)cc5ccccc45)c(Cl)cc23)CC1` [Compound 65, (2S,4R)-1-[(2S)-2-[2-({1-[(2R)-2-{[6-chloro-8-fluoro-7-(3-hydroxynaphthalen-1-yl)-4-[4-(prop-2-enoyl)piperazin-1-yl]quinazolin-2-yl]oxy}propyl]piperidin-4-yl}methoxy)acetamido]-3,3-dimethylbutanoyl]-4-hydroxy-N-[(1S)-1-[4-(4-methyl-1,3-thiazol-5-yl)phenyl]ethyl]pyrrolidine-2-carboxamide], the Dmax at HiBit-KRAS^G12C [1] (0.1% DMSO, read-out: KRas^G12C-HiBiT (MiaPaCa; 0.1% DMSO) DMax) was 35 to 70%; on HiBit-KRAS^G12C [1] (setting [3]), 35 to 70%; at HiBit-KRAS^G12C [2] (0.1% DMSO, read-out: KRas^G12C-HiBit (SW1573; 0.1% DMSO) Dmax**), 35 to 70%; at HiBit-KRAS^G12C [2] (setting [5]) it was more than 70%. Besides, the DC50 on HiBit-KRAS^G12C [2] (setting [7]) was 0.1 to 1 µM.
Regarding `C=C(F)C(=O)N1CCN(c2nc(OCCN3CCC(C)(COc4cc([C@H](C(=O)N5C[C@H](O)C[C@H]5C(=O)N[C@@H](C)c5ccc(-c6scnc6C)cc5)C(C)C)on4)CC3)nc3c(F)c(-c4cc(O)cc5ccccc45)c(Cl)cc23)C[C@@H]1CC#N` (atropisomer, axis not shown) [Compound 123, (2S,4R)-1-[(2R)-2-[3-({1-[2-({6-chloro-4-[(3S)-3-(cyanomethyl)-4-(2-fluoroprop-2-enoyl)piperazin-1-yl]-8-fluoro-7-(3-hydroxynaphthalen-1-yl)quinazolin-2-yl}oxy)ethyl]-4-methylpiperidin-4-yl}methoxy)-1,2-oxazol-5-yl]-3-methylbutanoyl]-4-hydroxy-N-[(1S)-1-[4-(4-methyl-1,3-thiazol-5-yl)phenyl]ethyl]pyrrolidine-2-carboxamide], the Dmax on HiBit-KRAS^G12C [1] (setting [3]) and on HiBit-KRAS^G12C [2] (setting [5]) was more than 70% each time. The DC50 on HiBit-KRAS^G12C [1] (setting [4]) and at HiBit-KRAS^G12C [2] (setting [6]) was less than 0.1 µM in each case.
`C=CC(=O)N1CCN(c2nc(OCCN3CCC(COCC(=O)N[C@H](C(=O)N4C[C@H](O)C[C@H]4C(=O)N[C@@H](C)c4ccc(-c5scnc5C)cc4)C(C)(C)C)CC3)nc3c(F)c(-c4cc(O)cc5ccccc45)c(Cl)cc23)[C@@H](C)C1` [Compound 119, (2S,4R)-1-[(2S)-2-(2-{[1-(2-{[6-chloro-8-fluoro-7-(3-hydroxynaphthalen-1-yl)-4-[(2S)-2-methyl-4-(prop-2-enoyl)piperazin-1-yl]quinazolin-2-yl]oxy}ethyl)piperidin-4-yl]methoxy}acetamido)-3,3-dimethylbutanoyl]-4-hydroxy-N-[(1S)-1-[4-(4-methyl-1,3-thiazol-5-yl)phenyl]ethyl]pyrrolidine-2-carboxamide]: the Dmax at HiBit-KRAS^G12C [1] (setting [3]) and on HiBit-KRAS^G12C [2] (setting [5]) was more than 70% each time. For the same compound, the DC50 at HiBit-KRAS^G12C [1] (setting [4]) and at HiBit-KRAS^G12C [2] (setting [6]) was 0.1 to 1 µM each time.
`C=CC(=O)N1CCN(c2nc(O[C@H](C)CN3CCC(OCCN4CCN(CC(=O)N[C@H](C(=O)N5C[C@H](O)C[C@H]5C(=O)N[C@@H](C)c5ccc(-c6scnc6C)cc5)C(C)(C)C)CC4)CC3)nc3c(F)c(-c4cc(O)cc5ccccc45)c(Cl)cc23)CC1` [Compound 54, (2S,4R)-1-[(2S)-2-(2-{4-[2-({1-[(2R)-2-{[6-chloro-8-fluoro-7-(3-hydroxynaphthalen-1-yl)-4-[4-(prop-2-enoyl)piperazin-1-yl]quinazolin-2-yl]oxy}propyl]piperidin-4-yl}oxy)ethyl]piperazin-1-yl}acetamido)-3,3-dimethylbutanoyl]-4-hydroxy-N-[(1S)-1-[4-(4-methyl-1,3-thiazol-5-yl)phenyl]ethyl]pyrrolidine-2-carboxamide]: the DC50 at HiBit-KRAS^G12C [1] (read-out: KRas^G12C-HiBiT (MiaPaCa; 0.1% DMSO) IC50, 0.1% DMSO) is more than 1 µM; on HiBit-KRAS^G12C [2] (setting [7]), less than 0.1 µM.
On to `C=CC(=O)N1CCN(c2nc(OCCN3CCC(C)(COc4cc([C@@H](C(=O)N5C[C@H](O)C[C@H]5C(=O)N[C@@H](C)c5ccc(-c6scnc6C)cc5)C(C)C)on4)CC3)nc3c(F)c(-c4cc(O)cc5ccccc45)c(Cl)cc23)C[C@@H]1CC#N` [Compound 132, (2S,4R)-1-[(2S)-2-[3-({1-[2-({6-chloro-4-[(3S)-3-(cyanomethyl)-4-(prop-2-enoyl)piperazin-1-yl]-8-fluoro-7-(3-hydroxynaphthalen-1-yl)quinazolin-2-yl}oxy)ethyl]-4-methylpiperidin-4-yl}methoxy)-1,2-oxazol-5-yl]-3-methylbutanoyl]-4-hydroxy-N-[(1S)-1-[4-(4-methyl-1,3-thiazol-5-yl)phenyl]ethyl]pyrrolidine-2-carboxamide], for which the DC50 at HiBit-KRAS^G12C [1] (setting [4]) and at HiBit-KRAS^G12C [2] (setting [6]) was more than 1 µM each time.
On to `C=CC(=O)N1CCN(c2nc(O[C@H](C)CN3CCC(COCC(=O)N[C@H](C(=O)N4C[C@H](O)C[C@H]4C(=O)N[C@@H](C)c4ccc(-c5scnc5C)cc4)C(C)(C)C)CC3)nc3c(F)c(-c4cc(O)cc5ccccc45)c(Cl)cc23)C[C@@H]1CC#N` [Compound 152, (2S,4R)-1-[(2S)-2-[2-({1-[(2R)-2-({6-chloro-4-[(3S)-3-(cyanomethyl)-4-(prop-2-enoyl)piperazin-1-yl]-8-fluoro-7-(3-hydroxynaphthalen-1-yl)quinazolin-2-yl}oxy)propyl]piperidin-4-yl}methoxy)acetamido]-3,3-dimethylbutanoyl]-4-hydroxy-N-[(1S)-1-[4-(4-methyl-1,3-thiazol-5-yl)phenyl]ethyl]pyrrolidine-2-carboxamide], for which the Dmax is 35 to 70% at HiBit-KRAS^G12C [1] (setting [3]) and more than 70% on HiBit-KRAS^G12C [2] (setting [5]). The DC50 on HiBit-KRAS^G12C [1] (setting [4]) and at HiBit-KRAS^G12C [2] (setting [6]) was 0.1 to 1 µM in each case.
For `C=CC(=O)N1CCN(c2nc(OCCN3CCC(COc4cc([C@@H](C(=O)N5C[C@H](O)C[C@H]5C(=O)N[C@@H](C)c5ccc(C#N)cc5)C(C)C)on4)CC3)nc3c(F)c(-c4cc(O)cc5ccccc45)c(Cl)cc23)C[C@@H]1CC#N` [Compound 161, (2S,4R)-1-[(2S)-2-[3-({1-[2-({6-chloro-4-[(3S)-3-(cyanomethyl)-4-(prop-2-enoyl)piperazin-1-yl]-8-fluoro-7-(3-hydroxynaphthalen-1-yl)quinazolin-2-yl}oxy)ethyl]piperidin-4-yl}methoxy)-1,2-oxazol-5-yl]-3-methylbutanoyl]-N-[(1S)-1-(4-cyanophenyl)ethyl]-4-hydroxypyrrolidine-2-carboxamide], the Dmax on HiBit-KRAS^G12C [1] (setting [3]) and on HiBit-KRAS^G12C [2] (setting [5]) was 35 to 70% throughout. Moreover, the DC50 on HiBit-KRAS^G12C [1] (setting [4]) was 0.1 to 1 µM; at HiBit-KRAS^G12C [2] (setting [6]), less than 0.1 µM.
